Data from the supplement of paper PMC10307832.

Tests used:
Assay in all cases: relative viability (nuclei count vs DMSO), 5 days (fraction); higher = more cells survive
201T = test system: 201T
In short: (§1)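 The day after seeding in 1536-well plates, lung cancer cell lines were treated by pin tool with a single drug, or with a fixed anchor-drug dose together with five library-drug doses (not always all listed) in √10 steps. After 5 days, a combined fix-and-stain solution (final 0.05% Triton X-100, 1% formaldehyde, 1 ug/ml Hoechst) was added. Nuclei counted on 4× images gave relative viability as treated counts over vehicle counts, reported as the median of duplicate plates.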

ABC-1 = test system: ABC-1
In short: as §1

EKVX = test system: EKVX
In short: as §1

EMC-BAC-2 = test system: EMC-BAC-2
In short: as §1

HCC-44 = test system: HCC-44
In short: as §1

HCC-78 = test system: HCC-78
In short: as §1

HOP-62 = test system: HOP-62
In short: as §1

LC-2-ad = test system: LC-2-ad
In short: as §1

LK-2 = test system: LK-2
In short: as §1

NCI-H1355 = test system: NCI-H1355
In short: as §1

NCI-H2009 = test system: NCI-H2009
In short: as §1

NCI-H2228 = test system: NCI-H2228
In short: as §1

NCI-H2347 = test system: NCI-H2347
In short: as §1

NCI-H3122 = test system: NCI-H3122
In short: as §1

NCI-H838 = test system: NCI-H838
In short: as §1

PC-14 = test system: PC-14
In short: as §1

RERF-LC-KJ = test system: RERF-LC-KJ
In short: as §1

SK-MES-1 = test system: SK-MES-1
In short: as §1

SW 1573 = test system: SW 1573
In short: as §1

UMC-11 = test system: UMC-11
In short: as §1

## COCC1(CO)C(=O)C2CCN1CC2 (centres undefined) [PRIMA-1MET] + Cc1nc(NC(=O)N2CCC[C@H]2C(N)=O)sc1-c1ccnc(C(C)(C)C(F)(F)F)c1 [Alpelisib] (partner 2 µM)
201T; first compound 0.2 µM
  relative viability: 1.04
201T; first compound 0.6325 µM
  relative viability: 0.971
201T; first compound 2 µM
  relative viability: 0.885
201T; first compound 6.325 µM
  relative viability: 1.05
201T; first compound 20 µM
  relative viability: 1.03
ABC-1; first compound 0.2 µM
  relative viability: 1.07
ABC-1; first compound 0.6325 µM
  relative viability: 1.1
ABC-1; first compound 2 µM
  relative viability: 1.11
ABC-1; first compound 6.325 µM
  relative viability: 1.04
ABC-1; first compound 20 µM
  relative viability: 0.479
EKVX; first compound 0.2 µM
  relative viability: 0.978
EKVX; first compound 0.6325 µM
  relative viability: 0.966
EKVX; first compound 2 µM
  relative viability: 0.638
EKVX; first compound 6.325 µM
  relative viability: 0.911
EKVX; first compound 20 µM
  relative viability: 0.778
EMC-BAC-2; first compound 0.2 µM
  relative viability: 0.82
EMC-BAC-2; first compound 0.6325 µM
  relative viability: 0.719
EMC-BAC-2; first compound 2 µM
  relative viability: 0.666
EMC-BAC-2; first compound 6.325 µM
  relative viability: 0.775
EMC-BAC-2; first compound 20 µM
  relative viability: 0.759
HCC-44; first compound 0.2 µM
  relative viability: 0.87
HCC-44; first compound 0.6325 µM
  relative viability: 0.647
HCC-44; first compound 2 µM
  relative viability: 0.673
HCC-44; first compound 6.325 µM
  relative viability: 0.801
HCC-44; first compound 20 µM
  relative viability: 0.737
HCC-78; first compound 0.2 µM
  relative viability: 0.364
HCC-78; first compound 0.6325 µM
  relative viability: 0.26
HCC-78; first compound 6.325 µM
  relative viability: 0.335
HCC-78; first compound 20 µM
  relative viability: 0.0523
HOP-62; first compound 0.2 µM
  relative viability: 1.13
HOP-62; first compound 0.6325 µM
  relative viability: 0.986
HOP-62; first compound 2 µM
  relative viability: 0.732
HOP-62; first compound 6.325 µM
  relative viability: 1.18
HOP-62; first compound 20 µM
  relative viability: 0.487
LC-2-ad; first compound 0.2 µM
  relative viability: 0.909
LC-2-ad; first compound 0.6325 µM
  relative viability: 0.931
LC-2-ad; first compound 2 µM
  relative viability: 1.01
LC-2-ad; first compound 6.325 µM
  relative viability: 0.909
LC-2-ad; first compound 20 µM
  relative viability: 0.695
LK-2; first compound 0.2 µM
  relative viability: 1.22
LK-2; first compound 0.6325 µM
  relative viability: 0.868
LK-2; first compound 2 µM
  relative viability: 0.577
LK-2; first compound 6.325 µM
  relative viability: 0.626
LK-2; first compound 20 µM
  relative viability: 0.162
NCI-H1355; first compound 0.2 µM
  relative viability: 0.953
NCI-H1355; first compound 0.6325 µM
  relative viability: 0.7
NCI-H1355; first compound 2 µM
  relative viability: 0.766
NCI-H1355; first compound 6.325 µM
  relative viability: 0.86
NCI-H1355; first compound 20 µM
  relative viability: 0.852
NCI-H2009; first compound 0.2 µM
  relative viability: 1.12
NCI-H2009; first compound 0.6325 µM
  relative viability: 1.15
NCI-H2009; first compound 2 µM
  relative viability: 1.23
NCI-H2009; first compound 6.325 µM
  relative viability: 1.13
NCI-H2009; first compound 20 µM
  relative viability: 0.325
NCI-H2228; first compound 0.2 µM
  relative viability: 1.06
NCI-H2228; first compound 0.6325 µM
  relative viability: 0.654
NCI-H2228; first compound 2 µM
  relative viability: 0.744
NCI-H2228; first compound 6.325 µM
  relative viability: 0.534
NCI-H2228; first compound 20 µM
  relative viability: 0.0746
NCI-H2347; first compound 0.2 µM
  relative viability: 1.08
NCI-H2347; first compound 0.6325 µM
  relative viability: 1.01
NCI-H2347; first compound 2 µM
  relative viability: 0.602
NCI-H2347; first compound 6.325 µM
  relative viability: 1.08
NCI-H2347; first compound 20 µM
  relative viability: 0.923
NCI-H3122; first compound 0.2 µM
  relative viability: 0.696
NCI-H3122; first compound 0.6325 µM
  relative viability: 0.683
NCI-H3122; first compound 2 µM
  relative viability: 0.844
NCI-H3122; first compound 6.325 µM
  relative viability: 0.628
NCI-H3122; first compound 20 µM
  relative viability: 0.684
NCI-H838; first compound 0.2 µM
  relative viability: 1.26
NCI-H838; first compound 0.6325 µM
  relative viability: 0.968
NCI-H838; first compound 2 µM
  relative viability: 1.06
NCI-H838; first compound 6.325 µM
  relative viability: 1.13
NCI-H838; first compound 20 µM
  relative viability: 0.61
PC-14; first compound 0.2 µM
  relative viability: 0.839
PC-14; first compound 0.6325 µM
  relative viability: 1.03
PC-14; first compound 2 µM
  relative viability: 0.926
PC-14; first compound 6.325 µM
  relative viability: 1.07
PC-14; first compound 20 µM
  relative viability: 0.905
RERF-LC-KJ; first compound 0.2 µM
  relative viability: 0.797
RERF-LC-KJ; first compound 0.6325 µM
  relative viability: 0.835
RERF-LC-KJ; first compound 2 µM
  relative viability: 0.715
RERF-LC-KJ; first compound 6.325 µM
  relative viability: 1.01
RERF-LC-KJ; first compound 20 µM
  relative viability: 0.75
SK-MES-1; first compound 0.2 µM
  relative viability: 0.885
SK-MES-1; first compound 0.6325 µM
  relative viability: 1.02
SK-MES-1; first compound 2 µM
  relative viability: 0.747
SK-MES-1; first compound 6.325 µM
  relative viability: 0.823
SK-MES-1; first compound 20 µM
  relative viability: 0.822
SW 1573; first compound 0.2 µM
  relative viability: 0.845
SW 1573; first compound 0.6325 µM
  relative viability: 0.691
SW 1573; first compound 2 µM
  relative viability: 0.538
SW 1573; first compound 6.325 µM
  relative viability: 0.355
SW 1573; first compound 20 µM
  relative viability: 0.0324
UMC-11; first compound 0.2 µM
  relative viability: 1.03
UMC-11; first compound 0.6325 µM
  relative viability: 0.824
UMC-11; first compound 2 µM
  relative viability: 1.07
UMC-11; first compound 6.325 µM
  relative viability: 1.13
UMC-11; first compound 20 µM
  relative viability: 0.899
